Measurements taken from ChEMBL document CHEMBL1143816, “Daptomycin produces an enhanced bactericidal activity compared to ceftriaxone, measured by [3H]choline release in the cerebrospinal fluid, in experimental meningitis due to a penicillin-resistant pneumococcal strain without lysing its cell wall” (2007).
In brackets after ≈: the same amount, converted by molar mass.

Experiments:
Assay type in all cases: functional
Streptococcus pneumoniae [1] = experiment: Antimicrobial activity in Streptococcus pneumoniae WB4 infected New Zealand white rabbit meningitis model assessed as decrease in viable cells in CSF at 15 mg/kg after 8 hrs
Streptococcus pneumoniae [2] = experiment: Antimicrobial activity against Streptococcus pneumoniae WB4 by broth macrodilution method
Streptococcus pneumoniae [3] = experiment: Antimicrobial activity in Streptococcus pneumoniae WB4 infected New Zealand white rabbit meningitis model assessed as increase in [3H]choline release in CSF at 15 mg/kg after 4 hrs
Streptococcus pneumoniae [4] = experiment: Antimicrobial activity in Streptococcus pneumoniae WB4 infected New Zealand white rabbit meningitis model assessed as increase in [3H]choline release in CSF at 125 mg/kg after 4 to 6 hrs
Streptococcus pneumoniae [5] = experiment: Antimicrobial activity in Streptococcus pneumoniae WB4 infected New Zealand white rabbit meningitis model assessed as decrease in viable cells in CSF at 125 mg/kg after 8 hrs

CCCCCCCCCC(=O)N[C@@H](Cc1c[nH]c2ccccc12)C(=O)N[C@H](CC(N)=O)C(=O)N[C@@H](CC(=O)O)C(=O)N[C@@H]1C(=O)NCC(=O)N[C@@H](CCCN)C(=O)N[C@@H](CC(=O)O)C(=O)N[C@H](C)C(=O)N[C@@H](CC(=O)O)C(=O)NCC(=O)N[C@H](CO)C(=O)N[C@@H]([C@H](C)CC(=O)O)C(=O)N[C@@H](CC(=O)c2ccccc2N)C(=O)O[C@@H]1C
log10CFU/ml (Streptococcus pneumoniae [1]): -6.64
MIC (Streptococcus pneumoniae [2]): 0.06 µg/mL (≈ 0.037 µM)
Activity (Streptococcus pneumoniae [3]): 250 cpm/min

CO/N=C(\C(=O)NC1C(=O)N2C(C(=O)O)=C(COC(C)=O)CS[C@H]12)c1csc(N)n1 (single isomer, unassigned) [CEFOTAXIME]
MIC (Streptococcus pneumoniae [2]): 1 µg/mL (≈ 2.2 µM)

CO/N=C(\C(=O)N[C@@H]1C(=O)N2C(C(=O)O)=C(CSc3nc(=O)c(O)nn3C)CS[C@H]12)c1csc(N)n1 [CEFTRIAXONE]
Activity (Streptococcus pneumoniae [4]): 2500 cpm/min
MIC (Streptococcus pneumoniae [2]): 0.5 µg/mL (≈ 0.902 µM)
log10CFU/ml (Streptococcus pneumoniae [5]): -4.04

COc1c(N2C[C@@H]3CCCN[C@@H]3C2)c(F)cc2c(=O)c(C(=O)O)cn(C3CC3)c12 [MOXIFLOXACIN]
MIC (Streptococcus pneumoniae [2]): 0.12 µg/mL (≈ 0.299 µM)

CN[C@H](CC(C)C)C(=O)N[C@H]1C(=O)N[C@@H](CC(N)=O)C(=O)N[C@H]2C(=O)N[C@H]3C(=O)N[C@H](C(=O)N[C@H](C(=O)O)c4cc(O)cc(O)c4-c4cc3ccc4O)[C@H](O)c3ccc(c(Cl)c3)Oc3cc2cc(c3O[C@@H]2O[C@H](CO)[C@@H](O)[C@H](O)[C@H]2O[C@H]2C[C@](C)(N)[C@H](O)[C@H](C)O2)Oc2ccc(cc2Cl)[C@H]1O [VANCOMYCIN]
MIC (Streptococcus pneumoniae [2]): 0.12 µg/mL (≈ 0.0828 µM)
